Measurements as given in patent US20240018125A1, “CYCLIC ISOTHIOUREA DERIVATIVES AS CXCR4 MODULATORS” (ERMIUM THERAPEUTICS, priority 2020, published 2024).
Counter-ions that a name gives are not always drawn.

Assays:
[1] = tested on: Female Balb/c mice, pristane-induced lupus; assay: In vivo pristane-induced lupus mouse model, anti-dsDNA antibody titers in serum by ELISA
Protocol: Female Balb/c mice (6 to 8 weeks, ENVIGO, Indianapolis, USA) received a single i.p. injection with 0.5 mL of pristane (Sigma-Aldrich, St Louis, USA) to induce a lupus-like disease. That same day, once daily treatment was started (10 mL/kg), either with vehicle control (PBS) i.p., with prednisolone (Sigma-Aldrich, St Louis, USA) in PBS p.o. at a dose of 15 mg/kg (positive control), or with an exemplary compound of formula (I), i.e. Example 60, at a dose of either 3 mg/kg, 10 mg/kg or 30 mg/kg in PBS i.p. After 4, 6 and 8 weeks of dosing, sample bleeds for each mouse were collected via the orbital sinus, and immediately cold processed to sera and stored (50 μl) at −80° C. until analysis. In serum, anti-dsDNA antibody titers are determined using ELISA. Optical density was measured at 450 nm (OD450) using a microplate reader. Data are reported as anti-dsDNA Ab titers (OD), mean±S.E.M. as well as the statistical significance versus pristane-induced vehicle treated group using t-tests.

[2] = molecular target: T1, Recombinant CXCR4 receptor (Homo sapiens, UniProt P61073); assay: G.Validation fluorescence assay of CXCR4 receptor conformational changes in lipidic micelles SB2L4 and SB3L1; type: biochemical; conditions: ligand 150 μM over basal state, 5 μM labelled CXCR4, 40 min
T1 construct: host or cells: HEK-293 T cells
Source text: G.Validation® assay is […] biotech proprietary fluorescence based assay that assesses conformational changes of a receptor upon activation/inactivation. Recombinant CXCR4 receptor is produced and purified from HEK-293 T cells using […] proprietary mixes. Receptor is then reconstituted in detergent buffers containing lipids mimicking the lipidic composition of dendritic cells (DC) and macrophages (SB2L4 and SB3L1). Thereafter, the receptor is labelled with a non-modifying probe allowing the detection of the activation state and conformational change of the receptor upon addition of a ligand. Indeed, the probe emission spectra maximum wavelength (Amax) shifts according to activation/inactivation of the receptor. Thus, kinetic of activation/inactivation of the receptor can be followed by monitoring Amax shift after addition of a ligand over time. Emission spectra were registered for 40 minutes after addition of each ligand. […] Activation/inactivation kinetics were also followed using an exemplary compound of formula (I), i.e.

[3] = tested on: 129S8 mice infected with influenza A virus H3 N2 (X31); assay: In vivo immunomodulating effect (type 1 IFNs in BALF) in acute influenza inflammation model; set-up: species or system mouse; conditions: […]; even lower than after ibuprofen
[4] = tested on: peripheral blood mononuclear cells (PBMCs) from healthy donors; assay: IFN production by R848-activated PBMCs, quantified with twINNE luciferase reporter cell line; type: cell-based, human; conditions: Homo sapiens, PBMC; read-out: IC50 of anti-inflammatory activity (IFN production by activated PBMCs)
Method in brief: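 Healthy-donor PBMCs (4.10^6/mL, RPMI/10% FBS) were pre-treated with compound, then stimulated with R848 at 5 μg/mL for 24 h. Supernatants were put on twINNE cells, which carry luciferase under five ISREs, for 24 h, and Bright-Glo luminescence was read. IC50 values came from variable-slope dose-response fits.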

Male C57BL/6 Rj mice = assay: In vivo evaluation of CXCR4 antagonistic activity by mobilisation of blood cells; set-up: species or system mouse; conditions: 30 mg/kg single i.p., 2:30 h after injection; shown also for neutrophils, monocytes, lymphocytes, eosinophils
Protocol: Male C57BL/6 Rj mice (7 weeks old) were obtained from Janvier (Le Genest-Saint-Isle, France). Mice were treated by a single intraperitoneal (i.p.) administration at timepoint 0 h. The experimental groups (n=10) were defined as follows: • Mice of group 1 were treated with vehicle only (0.9% NaCl aqueous solution) • Mice of group 2 were treated with AMD3100 (CXCR4 antagonist, Sigma-Aldrich, St Louis, USA) at 20 mg/kg (volume of 10 mL/kg) in 0.9% NaCl aqueous solution • Mice of group 3 were treated with an exemplary compound of formula (I), i.e. Example 60, at 30 mg/kg (volume of 10 mL/kg) in 0.9% NaCl aqueous solution
After 2:30 h, whole blood (at least 200 μl, max 1 mL) was collected in EDTA tubes before sacrifice by an intracardiac puncture under isoflurane anaesthesia and haematology parameters were determined the same day by laser flow cytometry, optical fluorescence and Laminar Flow Impedance™ using the ProCyte Dx hematology analyser (IDEXX, Eau Claire, USA). Differential leukocyte counts were performed to quantify specific immune cell types. Data are reported as total number of cells (K/μL), mean±S.E.M., as well as the statistical significance versus the vehicle control group using unpaired t-tests.

[5] = tested on: irrelevant G-protein coupled receptor (GPCR); assay: G.Validation fluorescence assay on irrelevant GPCR control; type: biochemical; conditions: SDF1α 15 μM, AMD3100 100 μM, Example 60 150 μM; SB3L1

T1 sequence (P61073 whole entry): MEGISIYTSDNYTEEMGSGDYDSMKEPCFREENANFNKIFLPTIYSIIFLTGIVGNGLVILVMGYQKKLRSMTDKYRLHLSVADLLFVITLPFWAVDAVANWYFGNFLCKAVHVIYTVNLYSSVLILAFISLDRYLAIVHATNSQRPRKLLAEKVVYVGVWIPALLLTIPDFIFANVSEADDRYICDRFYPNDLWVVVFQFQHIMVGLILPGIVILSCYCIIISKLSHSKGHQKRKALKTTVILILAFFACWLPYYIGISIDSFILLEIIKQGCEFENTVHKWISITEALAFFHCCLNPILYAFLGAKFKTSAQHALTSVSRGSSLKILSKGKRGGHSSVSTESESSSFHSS

## Clc1ccc2c(c1)CN=C(SCCCCN1CCCC1)N2 [Example 60, 6-chloro-2-((4-(pyrrolidin-1-yl)butyl)thio)-1,4-dihydroquinazoline dihydrochloride]
[1]; 3 mg/kg i.p. once daily, week 4
  anti-dsDNA Ab titers in serum vs vehicle-treated pristane-induced mice: reduced
[1]; 10 mg/kg i.p. once daily, week 4
  anti-dsDNA Ab titers in serum vs vehicle-treated pristane-induced mice: reduced
[1]; 10 mg/kg i.p. once daily, week 8, same range as prednisolone
  anti-dsDNA Ab titers in serum vs vehicle-treated pristane-induced mice: significantly decreased
[1]; 30 mg/kg i.p. once daily, week 4
  anti-dsDNA Ab titers in serum vs vehicle-treated pristane-induced mice: reduced
[1]; 30 mg/kg i.p. once daily, week 6
  anti-dsDNA Ab titers in serum vs vehicle-treated pristane-induced mice: significantly lower
[1]; 30 mg/kg i.p. once daily, week 8, same range as prednisolone
  anti-dsDNA Ab titers in serum vs vehicle-treated pristane-induced mice: significantly decreased
[2]
  CXCR4 structural activation/inactivation, Amax shift in fluorescence: blue shift
[3]
  concentration of IFNα in BALF vs vehicle-treated infected mice: significantly decreased
  concentration of IFNβ in BALF vs vehicle-treated infected mice: significantly decreased
  concentration of IFNλ2/3 in BALF vs vehicle-treated infected mice: significantly decreased
[4]
  IC50: ≤ 10 µM
Male C57BL/6 Rj mice
  numbers of white blood cells in the blood vs vehicle control: not increased
[5]
  irrelevant GPCR activation state, Amax shift in fluorescence: Neither benchmark ligands SDF1α and AMD3100, nor Example 60 showed any effect
